Assay results: article PMC8435859 (Frontiers in Cellular and Infection Microbiology, 2021)
Like-named read-outs stand apart in the source and are kept apart here.

Assays:
[1] = tested on: prolyl oligopeptidase (POP); set-up: method as in ref Zhou XQ et al., Flavonoids from Scutellaria baicalensis and their bioactivities; conditions: concentration of 100 microM; ref Zhou XQ et al., Flavonoids from Scutellaria baicalensis and their bioactivities; cited from earlier work
[2] = tested on: human adenovirus type 3 (HAdV-3); set-up: method as in Li M, et al. Neurosci Lett. 2016; conditions: HAdV-3 in A549 cells; vendor library annotation; ref Li M, et al. Neurosci Lett. 2016; cited from earlier work
A549 cells = tested on: A549 cells; set-up: method as in Li M, et al. Neurosci Lett. 2016; conditions: vendor library annotation, ref Li M, et al. Neurosci Lett. 2016, read-out: LC50 (the source's name); cited from earlier work
aldose reductase = conditions: aldose reductase; vendor library annotation; ref Aida K, et al. Planta Med, 1990; read-out: IC50; cited from earlier work
[3] = cited from earlier work; for Solubility in water (in words): library annotation
[4] = tested on: human tumor cell line panel; set-up: method as in Huang Y et al., Journal of Natural Products, 1998; conditions: library annotation, ref Huang Y et al., Journal of Natural Products, 1998; cited from earlier work
CYP3A = tested on: CYP3A; set-up: method as in Wang CP, et al. J Physiol Biochem. 2014 Sep;70(3):735-47; conditions: ref Wang CP, et al. J Physiol Biochem. 2014 Sep;70(3):735-47; cited from earlier work
GX_P2V [5] = assay: microbe, parasite or virus in culture; type: cell-based, Pangolin coronavirus
SARS-CoV-2 isolate WIV04 = assay: Anti-SARS-CoV-2 activity in vitro, viral yield in Vero E6 supernatant by qRT-PCR; type: cell-based, Severe acute respiratory syndrome coronavirus 2; conditions: for SI: CC50/EC50, SARS-CoV-2 WIV04 in Vero E6; for EC50: SARS-CoV-2 WIV04 MOI 0.01, Vero E6, 24 h.p.i., supernatant qRT-PCR
Description: To verify the drugs screened through the GX_P2V drug screening alternative model, we repeatedly tested the antiviral activity of the above drugs on SARS-CoV-2. In brief, Vero E6 cells were pre-seeded in 48-well plates at a density of 5×10^4 cells/well and continued to be cultured overnight. Two hours before infection, the culture supernatant of Vero E6 cells was discarded and replaced with a DMEM medium containing different concentration gradient drugs. Vero E6 cells were continued to be cultured for 2 hours, which was conducive to the early entry of the drugs into the cells. Vero E6 cells were infected with WIV04 at a MOI=0.01 for 1 h. After discarding the supernatant, the cells were washed twice with DMEM, and the medium was changed to a DMEM medium (10%FBS) containing the corresponding concentration of the drug. After 24 h.p.i, the cell supernatant was collected. According to the manufacturer’s instructions, the viral RNA was extract using Magnetic Bead Virus RNA Extraction Kits (Shanghai Fine Gene Biotech, FG438). The viral yield in the cell supernatant was then quantified by qRT-PCR using HiSxript II One step qRT-PCR SYBRGreen Kit (Vazyme, Nanjing, China).

GX_P2V NP protein = type: cell-based, Pangolin coronavirus
[6] = Cytotoxicity, CellTiter-Blue Cell Viability Assay; conditions: African green monkey
SARS-CoV-2 = tested on: SARS-CoV-2; set-up: method as in Cao et al., 2020; conditions: SARS-CoV-2 in vitro; ref Cao et al., 2020; cited from earlier work
GX_P2V [7] = type: cell-based, Pangolin coronavirus
in vitro = conditions: African green monkey
Vero E6 cells = assay: Cytotoxicity, CellTiter-Blue Cell Viability Assay; conditions: Vero E6 cells, CellTiter-Blue
yeast-α-glucosidase = target: yeast-α-glucosidase; set-up: method as in ref Saw C L L et al., Biopharmaceutics & Drug Disposition, 2014, 34(6):303-311; conditions: ref Saw C L L et al., Biopharmaceutics & Drug Disposition, 2014, 34(6):303-311, cited from earlier work
[8] = Pangolin coronavirus, Vero C1008, 72 h
[9] = Severe acute respiratory syndrome coronavirus 2, Vero C1008, 24 h

COc1c(O)cc2oc(-c3ccc(O)cc3)cc(=O)c2c1O [4', 5,7-trihydroxy-6-methoxyflavone]
inhibition of total prolyl oligopeptidase (POP) activity [1]: 43%

CC(C)(O)[C@@H]1CC[C@](C)([C@H]2[C@@H](O)C[C@@]3(C)[C@@H]4C[C@H](O[C@@H]5O[C@H](CO)[C@@H](O)[C@H](O)[C@H]5O)[C@H]5C(C)(C)[C@@H](O[C@@H]6OC[C@@H](O)[C@H](O)[C@H]6O)CC[C@@]56C[C@@]46CC[C@]23C)O1 [Astragaloside IV]
IC50 [2]: 23 µM | CC50 (A549 cells): 865 µM

O=C(/C=C/c1ccc(O)cc1)c1ccc(O)cc1O [Isoliquiritigenin]
IC50 (aldose reductase): 0.32 µM

COc1ccc(-c2cc(=O)c3c(O)cc(O[C@@H]4O[C@H](CO)[C@@H](O)[C@H](O)[C@H]4O[C@@H]4O[C@@H](C)[C@H](O)[C@@H](O)[C@H]4O)cc3o2)cc1O [Neodiosmin]
aqueous solubility ([3]; ref Mencherini T, et al. Journal of Agricultural and Food Chemistry, 2013, 61(8):1686-1693): 1. Neodiosmin has poor aqueous solubility but exerts a good debittering effect and is a strong antioxidant with potential applications in foods, beverages, and pharmaceutical preparations.

COc1ccc(-c2cc(=O)c3c(OC)c(OC)c(OC)c(OC)c3o2)cc1OC [Nobiletin]
solubility in water ([3]; vendor library annotation, ref Murakami A, et al. Cancer Res, 2000): Nobiletin is a natural polymethoxylated flavone isolated from citrus peels with anti-inflammatory and anti-tumor activities. Nobiletin is practically insoluble (in water) and an extremely weak acidic compound (based on its pKa).

COc1c(O[C@@H]2O[C@H](C(=O)O)[C@@H](O)[C@H](O)[C@H]2O)cc2oc(-c3ccccc3)cc(=O)c2c1O [Oroxylin A 7-O-beta-D-glucuronide]
inhibition of total prolyl oligopeptidase (POP) activity [1]: 34%

CC(C)C1=CC(=O)[C@](C)([C@H]2[C@H](O)C[C@@]3(C)[C@@H]4CC=C5[C@@H](CC[C@@H](O[C@@H]6OC[C@@H](O)[C@H](O)[C@H]6O[C@@H]6O[C@@H](C)[C@H](O)[C@@H](O)[C@H]6O)C5(C)C)[C@]4(C)C(=O)C[C@]23C)O1 [Picfeltarraenin IA]
cytotoxic activity in vitro [4]: 1. Picfeltarraenin IB and Picfeltarraenin IA displayes no cytotoxic activity in vitro human tumor cell line panel.

CC(C)C1=CC(=O)[C@@](C)([C@H]2[C@H](O)C[C@@]3(C)[C@@H]4CC=C5[C@@H](CC[C@@H](O[C@@H]6O[C@H](CO)[C@@H](O)[C@H](O)[C@H]6O[C@@H]6O[C@@H](C)[C@H](O)[C@@H](O)[C@H]6O)C5(C)C)[C@]4(C)C(=O)C[C@]23C)O1 [Picfeltarraenin IB]
cytotoxic activity in vitro [4]: 1. Picfeltarraenin IB and Picfeltarraenin IA displayes no cytotoxic activity in vitro human tumor cell line panel.

COc1cc2c(c(OC)c1OC)-c1c(cc(OC)c(OC)c1OC)C[C@H](C)[C@H](C)C2 [Schizandrin A]
IC50 (CYP3A): 6.6 µM | Ki (CYP3A): 5.83 µM

C=C1CC[C@@H]2[C@](C)(CO)[C@H](O)CC[C@@]2(C)[C@@H]1C/C=C1/C(=O)OC[C@H]1O [andrographolide]
SI (GX_P2V [5]; CC50/EC50, GX_P2V in Vero E6): 14.11 | EC50 (GX_P2V [5]; [8]): 6.79 µM | SI (SARS-CoV-2 isolate WIV04): 8.61 | EC50 (SARS-CoV-2 isolate WIV04; [9]): 11.1 µM | expression of viral NP protein (GX_P2V NP protein): achieved the same inhibitory effect | CC50 [6]: 95.8 µM | CC50 ([6]; Vero E6 cells): 95.7 µM

C=C1C(=O)O[C@@]23[C@H]1CC[C@@H](C)[C@@H]2CC[C@@]1(C)O[C@@H]31 [arteannuin B]
EC50 (GX_P2V [5]; [8]): 8.84 µM | SI (SARS-CoV-2 isolate WIV04): 9.72 | EC50 (SARS-CoV-2 isolate WIV04; [9]): 12 µM | expression of viral NP protein (GX_P2V NP protein): achieved the same inhibitory effect | EC50 (SARS-CoV-2): 10.3 ± 1.12 µM | CC50 [6]: 111 µM | CC50 ([6]; Vero E6 cells): 117 µM

CO[C@H]1O[C@@H]2O[C@@]3(C)CC[C@H]4[C@H](C)CC[C@@H]([C@H]1C)[C@@]24OO3 [artemether, reference compound]
EC50 (GX_P2V [5]; [8]): 3.7 µM | stage of action in time-of-addition assay (GX_P2V [7]): functioned on both entry and post-entry stages | expression of viral NP protein (GX_P2V NP protein): almost completely inhibited | CC50 ([6]; Vero E6 cells): > 200 µM

C[C@H]1[C@H](OC(=O)CCC(=O)O)O[C@@H]2O[C@@]3(C)CC[C@H]4[C@H](C)CC[C@@H]1[C@@]24OO3 [artesunate, reference compound]
EC50 (GX_P2V [5]; [8]): 10.1 µM | SI (SARS-CoV-2 isolate WIV04): 7.84 | EC50 (SARS-CoV-2 isolate WIV04; [9]): 16.2 µM | expression of viral NP protein (GX_P2V NP protein): most viral NP proteins can be inhibited | EC50 (SARS-CoV-2): 13 ± 5.3 µM | Solubility in water (in words) ([3]; ref Xu N, et al. Int J Med Sci. 2015, 12(6):524-529.): Artesunate is part of the artemisinin group of drugs that treat malaria. It is a semi-synthetic derivative of artemisinin that is water-soluble and may therefore be given by injection. It is on the World Health Organization's List of Essential Medicines. | CC50 [6]: 127 µM | CC50 ([6]; Vero E6 cells): 127 µM

CCN(CC)CCCC(C)Nc1ccnc2cc(Cl)ccc12 (stereo not shown) [chloroquine]
SI (GX_P2V [5]): > 3.92 | EC50 (GX_P2V [5]; [8]): 12.8 µM | CC50 (in vitro): > 50 µM

COc1cc(O)ccc1/C=C/C(=O)c1ccc(O)cc1 [echinatin]
EC50 (GX_P2V [5]; [8]): 20.9 µM | SI (SARS-CoV-2 isolate WIV04): 15.27 | EC50 (SARS-CoV-2 isolate WIV04; [9]): 7.86 µM | expression of viral NP protein (GX_P2V NP protein): most viral NP proteins can be inhibited | CC50 [6]: 158 µM | CC50 ([6]; Vero E6 cells): 120 µM

CCN(CCO)CCCC(C)Nc1ccnc2cc(Cl)ccc12 (stereo not shown) [hydroxychloroquine]
SI (GX_P2V [5]; CC50/EC50, GX_P2V in Vero E6): 9.157 | EC50 (GX_P2V [5]; [8]): 6.59 µM | CC50 [6]: 60.3 µM

COc1c(/C=C/C(=O)c2ccc(O)cc2)ccc(O)c1O [licochalcone B, Licochalcone B]
SI (GX_P2V [5]): 4.28 | EC50 (GX_P2V [5]; read-out: EC50): 24.9 µM | SI (SARS-CoV-2 isolate WIV04): 6.86 | EC50 (SARS-CoV-2 isolate WIV04): 15.5 µM | expression of viral NP protein (GX_P2V NP protein): most viral NP proteins can be inhibited | CC50 (Vero E6 cells): 106 µM

O=C(/C=C/c1ccc(O)c2c1[C@@H](C(=O)O[C@H](Cc1ccc(O)c(O)c1)C(=O)O)[C@H](c1ccc(O)c(O)c1)O2)O[C@H](Cc1ccc(O)c(O)c1)C(=O)O [lithospermic acid B]
Solubility in water (in words) ([3]; ref Wang J, et al. Evidence-Based Complementary and Alternative Medicine, 2013, 2013:1-16.): lithospermic acid B is a water-soluble antioxidant from Salvia extract. It plays significant role of antioxidant effect; antiplatelet aggregation, anticoagulant, and antithrombotic effect

Cc1cccc(C)c1OCC(=O)N[C@@H](Cc1ccccc1)[C@@H](O)C[C@H](Cc1ccccc1)NC(=O)[C@H](C(C)C)N1CCCNC1=O [lopinavir]
SI (GX_P2V [5]; CC50/EC50, GX_P2V in Vero E6): > 2.13 | EC50 (GX_P2V [5]; [8]): 11.7 µM | CC50 [6]: > 25 µM

CCC/C=C1/OC(=O)c2ccccc21 [n-Butylidenephthalide]
Ki (yeast-α-glucosidase; noncompetitive fashion, read-out: K(i), yeast-α-glucosidase): 4860 µM | IC50 (yeast-α-glucosidase; noncompetitive, read-out: IC(5), inhibition of yeast-α-glucosidase activity): 2350 µM

Cc1c(O)cccc1C(=O)N[C@@H](CSc1ccccc1)[C@H](O)CN1C[C@H]2CCCC[C@H]2C[C@H]1C(=O)NC(C)(C)C [nelfinavir]
SI (GX_P2V [5]; CC50/EC50, GX_P2V in Vero E6): 5.86 | EC50 (GX_P2V [5]; [8]): 6.71 µM | CC50 [6]: 39.3 µM

CCC(CC)COC(=O)[C@H](C)N[P@](=O)(OC[C@H]1O[C@@](C#N)(c2ccc3c(N)ncnn23)[C@H](O)[C@@H]1O)Oc1ccccc1 [remdesivir]
SI (GX_P2V [5]; CC50/EC50, GX_P2V in Vero E6): > 33.78 | EC50 (GX_P2V [5]; [8]): 0.74 µM | CC50 [6]: > 25 µM
